Source: ChEMBL document CHEMBL3632580, “Structure-activity relationship of indoloquinoline analogs anti-MRSA” (2015)
Values after ≈ are worked out from the molar mass of the structure shown.

system: Staphylococcus aureus; assay: Antibacterial activity against methicillin-resistant Staphylococcus aureus OM481; type: functional

Row | Structure (SMILES) | MIC
1 | CN(c1ccc(O)cc1)c1c2ccccc2nc2c1[nH]c1ccccc12 | > 250 µg/mL
2 | CC1c2ccccc2-c2nc3ccccc3c(Nc3ccc(O)cc3)c21 (stereo unspecified) | 16 µg/mL (≈ 47.3 µM)
3 | Clc1ccc(Nc2c3ccccc3nc3c2[nH]c2ccccc23)cc1 | 8 µg/mL (≈ 23.3 µM)
4 | Cc1ccc2[nH]c3c(Nc4ccc(O)cc4)c4ccccc4nc3c2c1 | 4 µg/mL (≈ 11.8 µM)
5 | Oc1ccc(Nc2c3ccccc3nc3c2[nH]c2ccccc23)cc1 | 4 µg/mL (≈ 12.3 µM)
6 | Oc1ccc(Nc2c3c(nc4ccccc24)-c2ccccc2C3)cc1 | 250 µg/mL (≈ 771 µM)
7 | Oc1cccc(Nc2c3ccccc3nc3c2[nH]c2ccccc23)c1 | 16 µg/mL (≈ 49.2 µM)
8 | COc1ccc(Nc2c3ccccc3nc3c2[nH]c2ccccc23)cc1 | 16 µg/mL (≈ 47.1 µM)
9 | Oc1ccc(Nc2c3ccccc3nc3c2[nH]c2ccc(Cl)cc23)cc1 | 8 µg/mL (≈ 22.2 µM)
10 | c1ccc(Nc2c3ccccc3nc3c2[nH]c2ccccc23)cc1 | 8 µg/mL (≈ 25.9 µM)
11 | COc1cccc(Nc2c3ccccc3nc3c2[nH]c2ccccc23)c1 | > 250 µg/mL
12 | Cc1ccc(Nc2c3ccccc3nc3c2[nH]c2ccccc23)cc1 | 62.5 µg/mL (≈ 193 µM)
13 | COc1ccc2[nH]c3c(Nc4ccc(O)cc4)c4ccccc4nc3c2c1 | 2 µg/mL (≈ 5.63 µM)
14 | Clc1cccc(Nc2c3ccccc3nc3c2[nH]c2ccccc23)c1 | 125 µg/mL (≈ 364 µM)
15 | COc1cc(O)ccc1Nc1c2ccccc2nc2c1[nH]c1ccccc12 | 8 µg/mL (≈ 22.5 µM)
16 | Fc1ccc(Nc2c3ccccc3nc3c2[nH]c2ccccc23)cc1 | 8 µg/mL (≈ 24.4 µM)
17 | COc1cc(NS(C)(=O)=O)ccc1Nc1c2ccccc2nc2c1[nH]c1ccccc12 | 8 µg/mL (≈ 18.5 µM)
18 | COc1ccccc1Nc1c2ccccc2nc2c1[nH]c1ccccc12 | > 250 µg/mL
19 | Cl.Oc1ccccc1Nc1c2ccccc2nc2c1[nH]c1ccccc12 | 16 µg/mL
20 | O=[N+]([O-])c1ccc(Nc2c3ccccc3nc3c2[nH]c2ccccc23)cc1 | > 250 µg/mL
21 | Clc1ccccc1Nc1c2ccccc2nc2c1[nH]c1ccccc12 | 8 µg/mL (≈ 23.3 µM)
22 | CC(=O)Oc1ccc(Nc2c3ccccc3nc3c2[nH]c2ccccc23)cc1.Cl | 16 µg/mL
23 | Cn1c2ccccc2c2nc3ccccc3c(Nc3ccc(O)cc3)c21 | 250 µg/mL (≈ 737 µM)
24 | Cl.Oc1ccc(Nc2c3ccccc3nc3ccccc23)cc1 | 250 µg/mL
25 | Oc1ccc(Nc2c3ccccc3nc3c2oc2ccccc23)cc1 | 2 µg/mL (≈ 6.13 µM)

system: Staphylococcus aureus; assay: Antibacterial activity against methicillin-resistant Staphylococcus aureus OM584; type: functional

Row | Structure (SMILES) | MIC
26 | CN(c1ccc(O)cc1)c1c2ccccc2nc2c1[nH]c1ccccc12 | > 250 µg/mL
27 | CC1c2ccccc2-c2nc3ccccc3c(Nc3ccc(O)cc3)c21 (stereo unspecified) | 4 µg/mL (≈ 11.8 µM)
28 | Clc1ccc(Nc2c3ccccc3nc3c2[nH]c2ccccc23)cc1 | 4 µg/mL (≈ 11.6 µM)
29 | Cc1ccc2[nH]c3c(Nc4ccc(O)cc4)c4ccccc4nc3c2c1 | 2 µg/mL (≈ 5.89 µM)
30 | Oc1ccc(Nc2c3ccccc3nc3c2[nH]c2ccccc23)cc1 | 2 µg/mL (≈ 6.15 µM)
31 | Oc1ccc(Nc2c3c(nc4ccccc24)-c2ccccc2C3)cc1 | > 250 µg/mL
32 | Oc1cccc(Nc2c3ccccc3nc3c2[nH]c2ccccc23)c1 | 8 µg/mL (≈ 24.6 µM)
33 | COc1ccc(Nc2c3ccccc3nc3c2[nH]c2ccccc23)cc1 | 8 µg/mL (≈ 23.6 µM)
34 | Oc1ccc(Nc2c3ccccc3nc3c2[nH]c2ccc(Cl)cc23)cc1 | 4 µg/mL (≈ 11.1 µM)
35 | c1ccc(Nc2c3ccccc3nc3c2[nH]c2ccccc23)cc1 | 4 µg/mL (≈ 12.9 µM)
36 | COc1cccc(Nc2c3ccccc3nc3c2[nH]c2ccccc23)c1 | > 250 µg/mL
37 | Cc1ccc(Nc2c3ccccc3nc3c2[nH]c2ccccc23)cc1 | 62.5 µg/mL (≈ 193 µM)
38 | COc1ccc2[nH]c3c(Nc4ccc(O)cc4)c4ccccc4nc3c2c1 | 2 µg/mL (≈ 5.63 µM)
39 | Clc1cccc(Nc2c3ccccc3nc3c2[nH]c2ccccc23)c1 | 125 µg/mL (≈ 364 µM)
40 | COc1cc(O)ccc1Nc1c2ccccc2nc2c1[nH]c1ccccc12 | 16 µg/mL (≈ 45 µM)
41 | Fc1ccc(Nc2c3ccccc3nc3c2[nH]c2ccccc23)cc1 | 8 µg/mL (≈ 24.4 µM)
42 | COc1cc(NS(C)(=O)=O)ccc1Nc1c2ccccc2nc2c1[nH]c1ccccc12 | 16 µg/mL (≈ 37 µM)
43 | COc1ccccc1Nc1c2ccccc2nc2c1[nH]c1ccccc12 | > 250 µg/mL
44 | Cl.Oc1ccccc1Nc1c2ccccc2nc2c1[nH]c1ccccc12 | 16 µg/mL
45 | O=[N+]([O-])c1ccc(Nc2c3ccccc3nc3c2[nH]c2ccccc23)cc1 | > 250 µg/mL
46 | Clc1ccccc1Nc1c2ccccc2nc2c1[nH]c1ccccc12 | 4 µg/mL (≈ 11.6 µM)
47 | CC(=O)Oc1ccc(Nc2c3ccccc3nc3c2[nH]c2ccccc23)cc1.Cl | 8 µg/mL
48 | Cn1c2ccccc2c2nc3ccccc3c(Nc3ccc(O)cc3)c21 | 8 µg/mL (≈ 23.6 µM)
49 | Cl.Oc1ccc(Nc2c3ccccc3nc3ccccc23)cc1 | > 250 µg/mL
50 | Oc1ccc(Nc2c3ccccc3nc3c2oc2ccccc23)cc1 | 2 µg/mL (≈ 6.13 µM)

system: P388; assay: Antitumor activity against mouse P388 cells implanted in CD2F1 mouse assessed as tumor growth inhibition at 6.25 mg/kg, ip relative to control; type: functional

Row | Structure (SMILES) | T/C
51 | COc1cc(NS(C)(=O)=O)ccc1Nc1c2ccccc2nc2c1[nH]c1ccccc12 | 300%
